# Assay results taken from patent publication US20220378696A1, “TARGET DELIVERY OF NON-BIOLOGICS THROUGH NANOTECHNOLOGY FOR TISSUE REPAIR” (BOARD OF REGENTS, THE UNIVERSITY OF TEXAS SYSTEM, priority 2019, published 2022).
# Columns and labels:
# [1] = In vitro drug release from PLGA NPs; assay type: physicochemical
# Procedure: In vitro Drug Release. For the release studies, 1 mg each from all prepared NPs were dispersed in 1 ml of release medium (pH 7.4) each to form a suspension. Each suspension was in three replicates in 1.5 ml centrifuge tubes and incubated at 37° C. The release buffers were collected after centrifugation at 15,000 rpm for 30 min. The release buffers were replaced with fresh buffer at different periods and subjected to analysis using HPLC. The cumulative release of the model drug from each loaded NPs was plotted against time.
# [2] = Drug encapsulation (loading) efficiency of PLGA NPs; assay type: physicochemical; details: in PLGA NPs
# Procedure: Drug Encapsulation Efficiency. To find the amount of P188 and NAC within the NPs, P188 was fluorescently modified (TAMRA-P188) and loaded into the NPs. Fluorescence intensity of TAMRA-P188 in the supernatant was quantified over time using a plate reader. NAC was measured with high-performance liquid chromatography (HPLC). The results were converted into concentrations, and the loading efficiency for P188 and NAC were 85% and 28%, respectively, and calculated using the following equation.
# [3] = test system: brain endothelial cells (BECs); assay: Mitochondrial superoxide (MitoSox) in TNF-α stimulated brain endothelial cells; assay type: cell-based, mouse; details: BECs stimulated by TNF-a (10 ng/ml) for 4 hours, then treated
# Procedure: Next tested was the potential of reparative effects of two non-biologics. One is a triblock biocompatible polymer, known as poloxamers (P188), that was approved by FDA for numerous applications. […] The other compound is N-acetylcysteine (NAC), which is also an FDA-approved antioxidant that is associated with health benefits. […] Using a fluorophore (MitoSox) that preferentially binds to superoxide, the extent of oxidative stress in response to TNF-a were recorded and quantified. Oxidative stress is an important determinant of endothelial injury, which influences a number of cellular responses by activating several intracellular signaling cascades in endothelial cells, leading to the progression of vascular diseases. […] TNF-a induced a significant increase in oxidative stress and, if left untreated, the superoxide level persisted (FIG. 3B). […] This sequence of events may be engineered to accommodate short- and long-term beneficial responses. […]
# Measurement of Mitochondrial Reactive Oxygen Species (ROS). Superoxide was measured using a MitoSoX™ Red mitochondrial superoxide indicator, according to the manufacturer's instructions. […] After washing three times with PBS, images were taken with a fluorescent microscope and fluorescence intensities were calculated using Nikon ND2 software.
# [4] = test system: MMP-9; assay: MMP-9 enzyme activity assay (EnzChek) in cells exposed to microcavitation; assay type: cell-based, mouse; details: microcavitation (5 blasts), pretreatment 2 h: doxycycline 20 mM, phenanthroline 0.5 mM
# Procedure: (§1) MMPs activities assay, Fold change, and Permeability measurement: EnzChek MMP-2 & 9 Assay Kit were used for MMP-2 & 9 activity assays. Cells were cultured in endothelial cell complete media and divided into the following groups: control (no treatment), exposed (5 blasts), doxycycline (20 mM)+exposed (5 blasts), doxycycline (20 mM), and phenanthroline (0.5 mM, positive control). Before initiating experiments, cells were washed with PBS, and no serum media was applied. Dishes in the treatment groups were pretreated with doxycycline or phenanthroline for 2 h at 37° C. Cells were exposed to microcavitation and incubated at 37° C. for 1 h. All groups were homogenized with lysis buffer containing 0.1% Triton-X 100, and protein was estimated with Pierce BCA Protein Assay Kit. Equal amounts of protein from each sample were aliquoted in lysis buffer. Samples were then analyzed using a plate reader at excitation 495 nm and 515 nm to quantitate MMP-2 & 9 activities. Primary brain endothelial cells were grown under the conditions described above. At the end of all experimental conditions, RNA from the cells was extracted and used for PCR analysis of the MMP-2 & 9 gene expressions. Finally, the permeability of the brain endothelium model exposed to doxycycline, P188, or in combination of them both was measured.
# [5] = test system: MMP-2; assay: MMP-2 enzyme activity assay (EnzChek) in cells exposed to microcavitation; assay type: cell-based, mouse; details: microcavitation (5 blasts), pretreatment 2 h: doxycycline 20 mM, phenanthroline 0.5 mM
# Procedure: as §1
time within which most of the release was achieved [1],release ([1]; in 7 days),"time required to reach a half of the maximum release ([1]; pH 7.4, 37° C., linear regression)",loading efficiency [2],SMILES,superoxide level (oxidative stress) [3],MMP-9 enzymatic activity [4],MMP-2 enzymatic activity [5]
≤ 24 h,~100%,~7.7 h,28%,"CC(=O)N[C@@H](CS)C(=O)O [NAC, N-acetylcysteine]",noticeable attenuation of superoxide,,
,,,,c1cnc2c(c1)ccc1cccnc12 [phenanthroline],,inhibited,inhibited
